Measured values: patent US7572376B2, “Process for producing 1,3-propanediol” (Tate & Lyle Ingredients Americas, Inc., priority 2003, dated 2009)

Legend:
[1] = log P=[solute]octanol/[solute]water; cited from earlier work
[2] = solvent screen: PDO mixture with single solvents, distribution between solvent and aqueous phase; format: physicochemical; conditions: 30° C.; for Distribution Coefficient Glucose / Distribution Coefficient Glycerol / Distribution Coefficient PDO: conc. in solvent phase / conc. in aqueous phase, aqueous solution 46% w/v PDO, 3.5% glycerol, […] glucose; for Selectivity PDO/Glycerol: distribution coefficient of PDO divided by that of glycerol
Procedure: 10 g of an aqueous solution containing 46% w/v PDO, 3.5% glycerol and 2.9% glucose was heated to 30° C. and the required solvent added in very small quantities until a cloudiness just began to develop. Additional solvent (about 1 g) was added and thoroughly mixed. The mixture was allowed to settle for 10 minutes and then centrifuged to achieve complete phase separation. The two phases (solvent and aqueous) were analyzed.

In the case of `CC(O)CO` (stereo not shown) [1,2 PDO], the “hydrophobic parameter log P” value [1] is given as −1.003.
For `OCCCCO` [1,4 butanediol], the “hydrophobic parameter log P” value [1] is given as −1.384.
In the case of `CC(=O)CC(C)C` [4-Methyl Pentan-2-one], the “Distribution Coefficient Glucose” value [2] is reported as 0.001, the “Distribution Coefficient Glycerol” value [2] is reported as 0.008 and the “Distribution Coefficient PDO” value [2] is reported as 0.033. The “Selectivity PDO/Glycerol” value [2] was 4.03.
In the case of `CCCCO` [Butan-1-ol], the “phase formation on adding solvent to the aqueous PDO solution” value [2] is reported as “Only one liquid phase formed”.
In the case of `CCCCCCCC/C=C\CCCCCCCC(=O)O` [Oleic acid], the “Distribution Coefficient Glucose” value [2] is reported as 0.241, the “Distribution Coefficient Glycerol” value [2] is reported as 0.002 and the “Distribution Coefficient PDO” value [2] is reported as 0.009. The “Selectivity PDO/Glycerol” value [2] was 5.23.
In the case of `CCCCCCCC/C=C\CCCCCCCCO` [Oleyl Alcohol], the “Distribution Coefficient Glucose” value [2] is reported as 0.001, the “Distribution Coefficient Glycerol” value [2] is reported as 0.024 and the “Distribution Coefficient PDO” value [2] is reported as 0.038. The “Selectivity PDO/Glycerol” value [2] was 1.60.
With `CCCCCO` [Pentan-1-ol] the “Distribution Coefficient Glucose” value [2] was 0.256, the “Distribution Coefficient Glycerol” value [2] was 0.417 and the “Distribution Coefficient PDO” value [2] was 0.609. The “Selectivity PDO/Glycerol” value [2] was 1.46.
For `CCCCCCCCCC` [decane], the “hydrophobic parameter log P” value [1] is listed as 5.98.
In the case of `CCCCCCCCCCCCO` [dodecanol], the “hydrophobic parameter log P” value [1] is given as 5.0.
In the case of `CCOC(C)=O` [ethyl acetate], the “hydrophobic parameter log P” value [1] is listed as 0.68.
In the case of `OCC(O)CO` [glycerol], the “hydrophobic parameter log P” value [1] is given as −2.08.
In the case of `CCCCCCC` [heptane], the “hydrophobic parameter log P” value [1] is given as 4.0.
In the case of `CCCCCCCO` [heptanol], the “hydrophobic parameter log P” value [1] is listed as 2.4.
In the case of `CC(=O)OC(C)C` [isopropyl acetate], the “Distribution Coefficient Glucose” value [2] is reported as 0.001, the “Distribution Coefficient Glycerol” value [2] is reported as 0.005 and the “Distribution Coefficient PDO” value [2] is reported as 0.024. For the same molecule, the “Selectivity PDO/Glycerol” value [2] was 5.17.
For `CCCCCCCC` [octane], the “hydrophobic parameter log P” value [1] is given as 4.5.
For `CCCOC(C)=O` [propyl acetate], the “hydrophobic parameter log P” value [1] is given as 1.2.
